Experimental findings from ChEMBL document CHEMBL1909046, “DrugMatrix in vitro pharmacology data” are described below.

Tested on in the first experiment: not listed separately
Put plainly: DRUGMATRIX: Interleukin IL-1 radioligand binding (ligand: [125I] interleukin 1beta). The experiment is classed as cell membranes, Membrane. To be noted: nih3t3; Not Active = under 50% inhibition at 10 µM.
With `CCn1cc(C(=O)O)c(=O)c2cc(F)c(N3CCN(C)CC3)cc21` [PEFLOXACIN], the IC50 result is reported as “Not Active” and the Ki result was “Not Active”.
`CCCCOc1ccc(OCCCN2CCOCC2)cc1` [PRAMOXINE]: the IC50 entry is “Not Active” and the Ki entry is “Not Active”.
Take `O=C(C1CCCCC1)N1CC(=O)N2CCc3ccccc3C2C1` (stereo not given) [PRAZIQUANTEL]: the IC50 result is listed as “Not Active” and the Ki entry is reported as “Not Active”.
Regarding `CCN(CC)CCOC(=O)c1ccc(N)cc1` [PROCAINE], the IC50 result is recorded as “Not Active” and the Ki result is “Not Active”.
As to `CCCN(CCC)C(=O)C(CCC(=O)O)NC(=O)c1ccccc1` (stereo not given) [PROGLUMIDE], the IC50 result was “Not Active” and the Ki result was “Not Active”.
With `NC(=O)c1cnccn1` [PYRAZINAMIDE], the IC50 result was “Not Active” and the Ki entry is listed as “Not Active”.
As to `OC(CCN1CCCCC1)(c1ccccc1)C1CCCCC1` (stereo not given) [TRIHEXYPHENIDYL], the IC50 result is recorded as “Not Active” and the Ki result is reported as “Not Active”.
For the compound `Cc1cc2cc3c(C)cc(=O)oc3c(C)c2o1` [TRIOXSALEN], the IC50 entry is “Not Active” and the Ki entry is “Not Active”.
With `CCCC(CCC)C(=O)O` [VALPROIC ACID], the IC50 entry is reported as “Not Active” and the Ki result is recorded as “Not Active”.

The target of the next experiment is Protein phosphatase 3 catalytic subunit alpha (Homo sapiens, UniProt Q08209). Set-up: species or system Escherichia coli.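 Also: inhibition of calcineurin (PP2B) enzyme activity, measured with DiFMUP as the substrate; in other assays of this panel Not Active means under 50% inhibition at 10 µM.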
Settings: not given
As to `CCn1cc(C(=O)O)c(=O)c2cc(F)c(N3CCN(C)CC3)cc21` [PEFLOXACIN], the IC50 result is given as “Not Active”.
Turning to `CCCCOc1ccc(OCCCN2CCOCC2)cc1` [PRAMOXINE], the IC50 entry is listed as “Not Active”.
As for `O=C(C1CCCCC1)N1CC(=O)N2CCc3ccccc3C2C1` (stereo not given) [PRAZIQUANTEL], the IC50 entry is on record as “Not Active”.
The same measure, in the same setting: then `CCN(CC)CCOC(=O)c1ccc(N)cc1` [PROCAINE], with “Not Active”; and `CCCN(CCC)C(=O)C(CCC(=O)O)NC(=O)c1ccccc1` (stereo not given) [PROGLUMIDE], with “Not Active”.
Still for that read-out and setting: as for `NC(=O)c1cnccn1` [PYRAZINAMIDE], the entry is “Not Active”; as for `OC(CCN1CCCCC1)(c1ccccc1)C1CCCCC1` (stereo not given) [TRIHEXYPHENIDYL], “Not Active”.
As for `Cc1cc2cc3c(C)cc(=O)oc3c(C)c2o1` [TRIOXSALEN], the IC50 result is “Not Active”.
On the same count and under the same terms, as for `CCCC(CCC)C(=O)O` [VALPROIC ACID], the entry is “Not Active”.

For the next experiment, the target named is Sodium-dependent noradrenaline transporter (Homo sapiens, UniProt P23975). Kind of experiment: DRUGMATRIX: Norepinephrine Transporter radioligand binding (ligand: [125I] RTI-55). Format: cell membranes, MDCK, Membrane. To be noted: mdck; Not Active = under 50% inhibition at 10 µM.
Sequence of Sodium-dependent noradrenaline transporter (P23975 whole entry): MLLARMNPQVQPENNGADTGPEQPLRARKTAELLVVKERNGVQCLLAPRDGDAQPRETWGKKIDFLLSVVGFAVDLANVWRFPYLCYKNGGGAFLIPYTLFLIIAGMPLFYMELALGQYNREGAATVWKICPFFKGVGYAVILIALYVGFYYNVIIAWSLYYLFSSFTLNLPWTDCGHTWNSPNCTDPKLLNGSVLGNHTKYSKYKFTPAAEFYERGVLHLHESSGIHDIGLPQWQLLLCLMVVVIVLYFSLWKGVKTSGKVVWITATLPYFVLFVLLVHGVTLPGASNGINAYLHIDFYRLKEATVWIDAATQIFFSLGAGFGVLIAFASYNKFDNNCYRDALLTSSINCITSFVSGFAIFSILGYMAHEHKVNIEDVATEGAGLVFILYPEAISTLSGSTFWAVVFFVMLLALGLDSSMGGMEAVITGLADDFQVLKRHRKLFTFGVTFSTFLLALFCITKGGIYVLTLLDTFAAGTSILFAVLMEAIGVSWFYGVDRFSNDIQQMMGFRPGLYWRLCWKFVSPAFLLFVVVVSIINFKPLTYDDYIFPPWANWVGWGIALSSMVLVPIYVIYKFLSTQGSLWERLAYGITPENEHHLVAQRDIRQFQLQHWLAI
On to `CCn1cc(C(=O)O)c(=O)c2cc(F)c(N3CCN(C)CC3)cc21` [PEFLOXACIN], for which the IC50 result was “Not Active”.
Regarding `CCCCOc1ccc(OCCCN2CCOCC2)cc1` [PRAMOXINE], the IC50 entry is listed as “Not Active”.
In the case of `O=C(C1CCCCC1)N1CC(=O)N2CCc3ccccc3C2C1` (stereo not given) [PRAZIQUANTEL], the IC50 entry is recorded as “Not Active”.
Still for that read-out and setting: then `CCN(CC)CCOC(=O)c1ccc(N)cc1` [PROCAINE], with “Not Active”; and `CCCN(CCC)C(=O)C(CCC(=O)O)NC(=O)c1ccccc1` (stereo not given) [PROGLUMIDE], with “Not Active”.
Same read-out and setting: then `NC(=O)c1cnccn1` [PYRAZINAMIDE], with “Not Active”; and `OC(CCN1CCCCC1)(c1ccccc1)C1CCCCC1` (stereo not given) [TRIHEXYPHENIDYL], with “Not Active”.
On to `Cc1cc2cc3c(C)cc(=O)oc3c(C)c2o1` [TRIOXSALEN], for which the IC50 entry was “Not Active”.
Turning to `CCCC(CCC)C(=O)O` [VALPROIC ACID], the IC50 result is given as “Not Active”.

Tested on in a further experiment: not listed separately
Put plainly: DRUGMATRIX: Glutamate, NMDA, Agonism radioligand binding (ligand: [3H] CGP-39653). The experiment is classed as cell membranes, Rattus norvegicus, Wistar, Cerebral cortex, Membrane. To be noted: Not Active = under 50% inhibition at 10 µM.
In the case of `CCn1cc(C(=O)O)c(=O)c2cc(F)c(N3CCN(C)CC3)cc21` [PEFLOXACIN], the IC50 result is listed as “Not Active” and the Ki entry is recorded as “Not Active”.
For `CCCCOc1ccc(OCCCN2CCOCC2)cc1` [PRAMOXINE], the IC50 entry is “Not Active” and the Ki entry is given as “Not Active”.
With `O=C(C1CCCCC1)N1CC(=O)N2CCc3ccccc3C2C1` (stereo not given) [PRAZIQUANTEL], the IC50 result is recorded as “Not Active” and the Ki result is recorded as “Not Active”.
Turning to `CCN(CC)CCOC(=O)c1ccc(N)cc1` [PROCAINE], the IC50 entry is “Not Active” and the Ki result is “Not Active”.
For `CCCN(CCC)C(=O)C(CCC(=O)O)NC(=O)c1ccccc1` (stereo not given) [PROGLUMIDE], the IC50 entry is recorded as “Not Active” and the Ki result is listed as “Not Active”.
Turning to `NC(=O)c1cnccn1` [PYRAZINAMIDE], the IC50 result is “Not Active” and the Ki result is “Not Active”.
With `OC(CCN1CCCCC1)(c1ccccc1)C1CCCCC1` (stereo not given) [TRIHEXYPHENIDYL], the IC50 result was “Not Active” and the Ki result is on record as “Not Active”.
Take `Cc1cc2cc3c(C)cc(=O)oc3c(C)c2o1` [TRIOXSALEN]: the IC50 entry is “Not Active” and the Ki entry was “Not Active”.
With `CCCC(CCC)C(=O)O` [VALPROIC ACID], the IC50 entry is listed as “Not Active” and the Ki entry is given as “Not Active”.

Tested on in another experiment: not listed separately
Kind of experiment: DRUGMATRIX: GABAA, Muscimol, Central radioligand binding (ligand: [3H] Muscimol). To be noted: Not Active = under 50% inhibition at 10 µM. Format: cell membranes, Rattus norvegicus, Wistar, Brain, Membrane.
Turning to `CCn1cc(C(=O)O)c(=O)c2cc(F)c(N3CCN(C)CC3)cc21` [PEFLOXACIN], the IC50 entry is “Not Active” and the Ki entry is “Not Active”.
With `CCCCOc1ccc(OCCCN2CCOCC2)cc1` [PRAMOXINE], the IC50 result was “Not Active” and the Ki result is given as “Not Active”.
As to `O=C(C1CCCCC1)N1CC(=O)N2CCc3ccccc3C2C1` (stereo not given) [PRAZIQUANTEL], the IC50 entry was “Not Active” and the Ki entry is recorded as “Not Active”.
In the case of `CCN(CC)CCOC(=O)c1ccc(N)cc1` [PROCAINE], the IC50 entry was “Not Active” and the Ki result is “Not Active”.
Consider `CCCN(CCC)C(=O)C(CCC(=O)O)NC(=O)c1ccccc1` (stereo not given) [PROGLUMIDE], for which the IC50 entry is listed as “Not Active” and the Ki entry is recorded as “Not Active”.
Take `NC(=O)c1cnccn1` [PYRAZINAMIDE]: the IC50 entry is reported as “Not Active” and the Ki entry is “Not Active”.
In the case of `OC(CCN1CCCCC1)(c1ccccc1)C1CCCCC1` (stereo not given) [TRIHEXYPHENIDYL], the IC50 entry is on record as “Not Active” and the Ki entry is “Not Active”.
For `Cc1cc2cc3c(C)cc(=O)oc3c(C)c2o1` [TRIOXSALEN], the IC50 result is recorded as “Not Active” and the Ki entry is given as “Not Active”.
As to `CCCC(CCC)C(=O)O` [VALPROIC ACID], the IC50 entry is reported as “Not Active” and the Ki result is given as “Not Active”.

The target of another experiment is Acetylcholinesterase (Homo sapiens, UniProt P22303). Kind of experiment: DRUGMATRIX: Acetylcholinesterase enzyme inhibition (substrate: acetylthiocholine). Format: cell-based, HEK293. To be noted: hek293; Not Active = under 50% inhibition at 10 µM.
Sequence of Acetylcholinesterase (P22303 whole entry): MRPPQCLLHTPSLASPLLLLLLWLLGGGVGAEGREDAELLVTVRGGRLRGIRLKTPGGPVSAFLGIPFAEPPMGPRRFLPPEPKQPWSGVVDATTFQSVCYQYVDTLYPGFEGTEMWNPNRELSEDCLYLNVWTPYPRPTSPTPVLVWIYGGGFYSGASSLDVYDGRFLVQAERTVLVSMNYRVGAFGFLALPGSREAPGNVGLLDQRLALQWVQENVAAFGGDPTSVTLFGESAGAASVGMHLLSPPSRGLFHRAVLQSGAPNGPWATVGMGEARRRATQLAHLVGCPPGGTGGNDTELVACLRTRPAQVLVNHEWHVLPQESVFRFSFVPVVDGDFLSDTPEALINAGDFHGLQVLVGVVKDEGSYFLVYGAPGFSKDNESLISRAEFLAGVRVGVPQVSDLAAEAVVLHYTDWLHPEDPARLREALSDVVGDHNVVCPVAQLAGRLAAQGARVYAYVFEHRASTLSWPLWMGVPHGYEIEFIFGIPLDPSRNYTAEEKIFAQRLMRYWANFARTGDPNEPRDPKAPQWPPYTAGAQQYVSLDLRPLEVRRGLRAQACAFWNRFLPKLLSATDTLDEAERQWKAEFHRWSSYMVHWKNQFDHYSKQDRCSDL
Take `CCn1cc(C(=O)O)c(=O)c2cc(F)c(N3CCN(C)CC3)cc21` [PEFLOXACIN]: the IC50 result is “Not Active”.
Turning to `CCCCOc1ccc(OCCCN2CCOCC2)cc1` [PRAMOXINE], the IC50 entry is on record as “Not Active”.
The same measure, in the same setting: then `O=C(C1CCCCC1)N1CC(=O)N2CCc3ccccc3C2C1` (stereo not given) [PRAZIQUANTEL], with “Not Active”; and `CCN(CC)CCOC(=O)c1ccc(N)cc1` [PROCAINE], with “Not Active”.
With `CCCN(CCC)C(=O)C(CCC(=O)O)NC(=O)c1ccccc1` (stereo not given) [PROGLUMIDE], the IC50 entry is reported as “Not Active”.
Turning to `NC(=O)c1cnccn1` [PYRAZINAMIDE], the IC50 result is on record as “Not Active”.
Still for that read-out and setting: then `OC(CCN1CCCCC1)(c1ccccc1)C1CCCCC1` (stereo not given) [TRIHEXYPHENIDYL], with “Not Active”; and `Cc1cc2cc3c(C)cc(=O)oc3c(C)c2o1` [TRIOXSALEN], with “Not Active”; and `CCCC(CCC)C(=O)O` [VALPROIC ACID], with “Not Active”.

The next experiment has as its target T1, Alpha-2C adrenergic receptor (Homo sapiens, UniProt P18825).
T1 sequence (P18825 whole entry): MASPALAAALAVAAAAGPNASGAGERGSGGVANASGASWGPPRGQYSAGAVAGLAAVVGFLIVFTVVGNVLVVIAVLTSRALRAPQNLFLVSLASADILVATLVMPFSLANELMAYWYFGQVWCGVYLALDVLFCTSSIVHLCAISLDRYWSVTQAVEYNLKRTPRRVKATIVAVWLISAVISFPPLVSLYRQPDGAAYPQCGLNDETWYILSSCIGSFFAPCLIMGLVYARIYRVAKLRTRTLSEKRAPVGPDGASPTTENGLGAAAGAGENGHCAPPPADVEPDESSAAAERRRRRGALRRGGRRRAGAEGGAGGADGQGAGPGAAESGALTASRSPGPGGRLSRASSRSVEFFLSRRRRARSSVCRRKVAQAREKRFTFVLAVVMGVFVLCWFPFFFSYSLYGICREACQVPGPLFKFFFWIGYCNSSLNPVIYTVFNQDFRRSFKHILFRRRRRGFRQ
Kind of experiment: DRUGMATRIX: Adrenergic Alpha-2C radioligand binding (ligand: [3H] MK-912). The experiment is classed as cell membranes, Sf9, Membrane. To be noted: sf9.
Take `CCn1cc(C(=O)O)c(=O)c2cc(F)c(N3CCN(C)CC3)cc21` [PEFLOXACIN]: the IC50 entry was “Not Active”.
Same read-out and setting: as for `CCCCOc1ccc(OCCCN2CCOCC2)cc1` [PRAMOXINE], the entry is “Not Active”; as for `O=C(C1CCCCC1)N1CC(=O)N2CCc3ccccc3C2C1` (stereo not given) [PRAZIQUANTEL], “Not Active”.
For the compound `CCN(CC)CCOC(=O)c1ccc(N)cc1` [PROCAINE], the IC50 entry was “Not Active”.
On the same count and under the same terms, as for `CCCN(CCC)C(=O)C(CCC(=O)O)NC(=O)c1ccccc1` (stereo not given) [PROGLUMIDE], the entry is “Not Active”.
The same measure, in the same setting: as for `NC(=O)c1cnccn1` [PYRAZINAMIDE], the entry is “Not Active”; as for `OC(CCN1CCCCC1)(c1ccccc1)C1CCCCC1` (stereo not given) [TRIHEXYPHENIDYL], “Not Active”; as for `Cc1cc2cc3c(C)cc(=O)oc3c(C)c2o1` [TRIOXSALEN], “Not Active”.
Consider `CCCC(CCC)C(=O)O` [VALPROIC ACID], for which the IC50 entry is listed as “Not Active”.
